In brackets after ≈: the same amount, converted by molar mass.

One data set relates to Staphylococcus aureus. The data set can be described thus: Antibacterial activity against methicillin-susceptible Staphylococcus aureus DRCC 035. The format is functional.
Conditions: not given
The compound `COC(=O)NC[C@H]1CN(c2ccc(N3CCN(C(=O)C(=O)c4c[nH]c5ccc(Br)cc45)CC3)c(F)c2)C(=O)O1` had an MIC of 1 µg/mL (≈ 1.66 µM).

In turn, `CC(=O)NC[C@H]1CN(c2ccc(N3CCN(C(=O)C(=O)c4c(C)[nH]c5ccccc45)CC3)c(F)c2)C(=O)O1` displayed an MIC of 2 µg/mL (≈ 3.83 µM).

Turning to `COC(=S)NC[C@H]1CN(c2ccc(N3CCN(C(=O)C(=O)c4c[nH]c5ccc(Br)cc45)CC3)c(F)c2)C(=O)O1`, the MIC was 1 µg/mL (≈ 1.62 µM).

For the compound `CC(=O)NC[C@H]1CN(c2ccc(N3CCN(C(=O)C(=O)c4c[nH]c5ccc(C#N)cc45)CC3)c(F)c2)C(=O)O1`, the MIC was determined as 1 µg/mL (≈ 1.88 µM).

The next data set relates to Staphylococcus aureus. The data set can be described thus: Antibacterial activity against methicillin-resistant Staphylococcus aureus DRCC 019.
Conditions: not given
The format is functional.
For `COC(=O)NC[C@H]1CN(c2ccc(N3CCN(C(=O)C(=O)c4c[nH]c5ccc(Br)cc45)CC3)c(F)c2)C(=O)O1`, the MIC came out at 0.5 µg/mL (≈ 0.83 µM).

`CC(=O)NC[C@H]1CN(c2ccc(N3CCN(C(=O)C(=O)c4c(C)[nH]c5ccccc45)CC3)c(F)c2)C(=O)O1` displayed an MIC of 1 µg/mL (≈ 1.92 µM).

Regarding `COC(=S)NC[C@H]1CN(c2ccc(N3CCN(C(=O)C(=O)c4c[nH]c5ccc(Br)cc45)CC3)c(F)c2)C(=O)O1`, the MIC is 1 µg/mL (≈ 1.62 µM).

Regarding `CC(=O)NC[C@H]1CN(c2ccc(N3CCN(C(=O)C(=O)c4c[nH]c5ccc(C#N)cc45)CC3)c(F)c2)C(=O)O1`, the MIC is 1 µg/mL (≈ 1.88 µM).

The next data set has as its system Staphylococcus aureus. The data set can be described thus: Antibacterial activity against linezolid-resistant Staphylococcus aureus DRCC 564. The format is functional.
Conditions: not given
Regarding `COC(=O)NC[C@H]1CN(c2ccc(N3CCN(C(=O)C(=O)c4c[nH]c5ccc(Br)cc45)CC3)c(F)c2)C(=O)O1`, the MIC was found to be 16 µg/mL (≈ 26.6 µM).

Take `COC(=S)NC[C@H]1CN(c2ccc(N3CCN(C(=O)C(=O)c4c[nH]c5ccc(Br)cc45)CC3)c(F)c2)C(=O)O1`: the MIC was determined as 2 µg/mL (≈ 3.23 µM).

A further data set relates to Enterococcus faecalis. Put plainly: Antibacterial activity against vancomycin-susceptible Enterococcus faecalis DRCC 034. The format is functional.
Conditions: not given
Regarding `COC(=O)NC[C@H]1CN(c2ccc(N3CCN(C(=O)C(=O)c4c[nH]c5ccc(Br)cc45)CC3)c(F)c2)C(=O)O1`, the MIC was 1 µg/mL (≈ 1.66 µM).

`CC(=O)NC[C@H]1CN(c2ccc(N3CCN(C(=O)C(=O)c4c(C)[nH]c5ccccc45)CC3)c(F)c2)C(=O)O1` yielded an MIC of 1 µg/mL (≈ 1.92 µM).

The compound `COC(=S)NC[C@H]1CN(c2ccc(N3CCN(C(=O)C(=O)c4c[nH]c5ccc(Br)cc45)CC3)c(F)c2)C(=O)O1` had an MIC of 1 µg/mL (≈ 1.62 µM).

Consider `CC(=O)NC[C@H]1CN(c2ccc(N3CCN(C(=O)C(=O)c4c[nH]c5ccc(C#N)cc45)CC3)c(F)c2)C(=O)O1`, for which the MIC was 1 µg/mL (≈ 1.88 µM).

The subject of a further data set is Enterococcus faecalis. Put plainly: Antibacterial activity against vancomycin-resistant Enterococcus faecalis DRCC 153.
Conditions: not given
In kind it is functional.
The compound `COC(=O)NC[C@H]1CN(c2ccc(N3CCN(C(=O)C(=O)c4c[nH]c5ccc(Br)cc45)CC3)c(F)c2)C(=O)O1` yielded an MIC of 0.5 µg/mL (≈ 0.83 µM).

`CC(=O)NC[C@H]1CN(c2ccc(N3CCN(C(=O)C(=O)c4c(C)[nH]c5ccccc45)CC3)c(F)c2)C(=O)O1` came in with an MIC of 1 µg/mL (≈ 1.92 µM).

Turning to `COC(=S)NC[C@H]1CN(c2ccc(N3CCN(C(=O)C(=O)c4c[nH]c5ccc(Br)cc45)CC3)c(F)c2)C(=O)O1`, the MIC amounted to 0.5 µg/mL (≈ 0.808 µM).

As for `CC(=O)NC[C@H]1CN(c2ccc(N3CCN(C(=O)C(=O)c4c[nH]c5ccc(C#N)cc45)CC3)c(F)c2)C(=O)O1`, the MIC amounted to 0.5 µg/mL (≈ 0.939 µM).

For a further data set, the system named is Enterococcus faecium. Put plainly: Antibacterial activity against vancomycin-resistant Enterococcus faecium DRCC 154. In kind it is functional.
Conditions: not given
Consider `COC(=O)NC[C@H]1CN(c2ccc(N3CCN(C(=O)C(=O)c4c[nH]c5ccc(Br)cc45)CC3)c(F)c2)C(=O)O1`, for which the MIC was 1 µg/mL (≈ 1.66 µM).

`CC(=O)NC[C@H]1CN(c2ccc(N3CCN(C(=O)C(=O)c4c(C)[nH]c5ccccc45)CC3)c(F)c2)C(=O)O1` registered an MIC of 2 µg/mL (≈ 3.83 µM).

`COC(=S)NC[C@H]1CN(c2ccc(N3CCN(C(=O)C(=O)c4c[nH]c5ccc(Br)cc45)CC3)c(F)c2)C(=O)O1` registered an MIC of 1 µg/mL (≈ 1.62 µM).

Regarding `CC(=O)NC[C@H]1CN(c2ccc(N3CCN(C(=O)C(=O)c4c[nH]c5ccc(C#N)cc45)CC3)c(F)c2)C(=O)O1`, the MIC was 1 µg/mL (≈ 1.88 µM).

The next data set relates to Enterococcus faecalis. Put plainly: Antibacterial activity against linezolid-resistant Enterococcus faecalis DRCC 632. The format is functional.
Conditions: not given
In turn, `COC(=O)NC[C@H]1CN(c2ccc(N3CCN(C(=O)C(=O)c4c[nH]c5ccc(Br)cc45)CC3)c(F)c2)C(=O)O1` had an MIC of 32 µg/mL (≈ 53.1 µM).

Turning to `COC(=S)NC[C@H]1CN(c2ccc(N3CCN(C(=O)C(=O)c4c[nH]c5ccc(Br)cc45)CC3)c(F)c2)C(=O)O1`, the MIC came out at 2 µg/mL (≈ 3.23 µM).

Another data set relates to Moraxella catarrhalis. The data set can be described thus: Antibacterial activity against beta-lactamase deficient Moraxella catarrhalis DRCC 300. The format is functional.
Conditions: not given
As to `COC(=O)NC[C@H]1CN(c2ccc(N3CCN(C(=O)C(=O)c4c[nH]c5ccc(Br)cc45)CC3)c(F)c2)C(=O)O1`, the MIC is 2 µg/mL (≈ 3.32 µM).

Turning to `COC(=S)NC[C@H]1CN(c2ccc(N3CCN(C(=O)C(=O)c4c[nH]c5ccc(Br)cc45)CC3)c(F)c2)C(=O)O1`, the MIC was determined as 1 µg/mL (≈ 1.62 µM).

A further data set deals with Haemophilus influenzae. The data set can be described thus: Antibacterial activity against beta-lactamase deficient Haemophilus influenzae DRCC 433.
Conditions: not given
In kind it is functional.
In turn, `COC(=O)NC[C@H]1CN(c2ccc(N3CCN(C(=O)C(=O)c4c[nH]c5ccc(Br)cc45)CC3)c(F)c2)C(=O)O1` gave an MIC of more than 32 µg/mL.

Turning to `CC(=O)NC[C@H]1CN(c2ccc(N3CCN(C(=O)C(=O)c4c(C)[nH]c5ccccc45)CC3)c(F)c2)C(=O)O1`, the MIC is more than 32 µg/mL.

`COC(=S)NC[C@H]1CN(c2ccc(N3CCN(C(=O)C(=O)c4c[nH]c5ccc(Br)cc45)CC3)c(F)c2)C(=O)O1` showed an MIC of more than 32 µg/mL.

Compound `CC(=O)NC[C@H]1CN(c2ccc(N3CCN(C(=O)C(=O)c4c[nH]c5ccc(C#N)cc45)CC3)c(F)c2)C(=O)O1` displayed an MIC of more than 32 µg/mL.

The subject of a further data set is Staphylococcus aureus. Put plainly: Antibacterial activity against Staphylococcus aureus DRCC 035 infected mouse systemic infection model administered orally for 1 day at 1 and 5 hrs post-infection and measured daily for 5 days. The format is functional. The note with it: po.
Usually ED50 stands for the dose at which the effect has come halfway, by size or by number of responders. Regarding `COC(=S)NC[C@H]1CN(c2ccc(N3CCN(C(=O)C(=O)c4c[nH]c5ccc(Br)cc45)CC3)c(F)c2)C(=O)O1`, the ED50 was more than 30 mg/kg.

Turning to `CC(=O)NC[C@H]1CN(c2ccc(N3CCN(C(=O)C(=O)c4c[nH]c5ccc(C#N)cc45)CC3)c(F)c2)C(=O)O1`, the ED50 was more than 30 mg/kg.

Tested on in a further data set: not listed separately
The data set can be described thus: AUC (0 to t) in Swiss albino mouse at 10 mg/kg, po. In kind it is ADME, organism-based. The arrangement: dose 10 mg/kg, route oral. The note with it: plasma.
One may read the AUC(0-t) as exposure summed from dosing to a finite time, without extrapolation to infinity. Read a high AUC(0-t) as high exposure. In turn, `CC(=O)NC[C@H]1CN(c2ccc(N3CCN(C(=O)C(=O)c4c[nH]c5ccc(C#N)cc45)CC3)c(F)c2)C(=O)O1` gave an AUC(0-t) of 1900 ng·h/mL.

Tested on in another data set: not listed separately
The data set can be described thus: Tmax in Swiss albino mouse at 10 mg/kg, po. The format is ADME, organism-based. The arrangement: dose 10 mg/kg, route oral. Conditions: in vivo.
The term Tmax denotes the time from dosing to the highest level. Consider `CC(=O)NC[C@H]1CN(c2ccc(N3CCN(C(=O)C(=O)c4c[nH]c5ccc(C#N)cc45)CC3)c(F)c2)C(=O)O1`, for which the Tmax turned out to be 3 h.

Tested on in the next data set: not listed separately
Put plainly: Cmax in Swiss albino mouse at 10 mg/kg, po. In kind it is ADME, organism-based. Conditions: in vivo. The arrangement: dose 10 mg/kg, route oral.
Usually Cmax stands for the peak of the concentration-time curve. On to `CC(=O)NC[C@H]1CN(c2ccc(N3CCN(C(=O)C(=O)c4c[nH]c5ccc(C#N)cc45)CC3)c(F)c2)C(=O)O1`, for which the highest level (Cmax) was 430 ng/mL.

Tested on in another data set: not listed separately
Put plainly: Half life in Swiss albino mouse at 10 mg/kg, po. In kind it is ADME, organism-based. The note with it: in vivo. The arrangement: dose 10 mg/kg, route oral.
By half-life is commonly meant the time in which the quantity being followed falls by half. Lower therefore signals fast loss. The compound `CC(=O)NC[C@H]1CN(c2ccc(N3CCN(C(=O)C(=O)c4c[nH]c5ccc(C#N)cc45)CC3)c(F)c2)C(=O)O1` had a half-life of 1.19 h.

Tested on in the next data set: not listed separately
The data set can be described thus: Drug elimination in Swiss albino mouse at 10 mg/kg, po. The format is ADME, organism-based. The arrangement: dose 10 mg/kg, route oral. Conditions: in vivo.
With `CC(=O)NC[C@H]1CN(c2ccc(N3CCN(C(=O)C(=O)c4c[nH]c5ccc(C#N)cc45)CC3)c(F)c2)C(=O)O1`, the k el was 0.000161 s⁻¹.
